Patent US12371428B2 (Exelixis, Inc., priority 2019, dated 2025)
pIC50: −log10 of the molar value. Read-outs that look alike come from different tables or passages of the source.

Experiments:
Format in all cases: cell-based
[1] = target: Met (phospho-Met, HGF-stimulated PC-3 prostate cancer cells) (Homo sapiens (Human), UniProt P08581); test: Met autophosphorylation ELISA in PC-3 cells (Example F); conditions: cellular activity, read-out: c-Met IC50
Description: PC-3 prostate cancer cells (ATCC #CRL-1435) were seeded at 4×10^4 cells/well onto 24-well plates (Greiner #662165), in DMEM (Thermo Fisher #11995-040) containing 10% FBS (Thermo Fisher #26140-079), 1% MEM NEAA (Thermo Fisher #11140-050), 1% GlutaMax (Thermo Fisher #35050-061), and 1% Penicillin Streptomycin (Thermo Fisher #15140-122). PC-3 cells were incubated at 37° C., 5% CO2 for 24 h and then starved for 3 h in serum-free medium. Test compounds were serially diluted to produce an 8-point dose curve in fresh serum-free medium to a final concentration of 0.3% DMSO (vehicle) and added to the cells and incubated for 1 h. Cells were then stimulated with 100 ng/mL recombinant human HGF (R&D Systems #294-HG-250) for 10 min, washed with cold PBS, and immediately lysed with […] of cold 1× lysis buffer [20 mM Tris, 137 mM sodium chloride, 2 mM EDTA, 10% glycerol, 1% NP-40 alternative, 1 mM activated sodium orthovanadate, 1 mM PefaBloc SC (Sigma-Aldrich #11429868001), protease/phosphatase inhibitor tablet (Thermo Fisher #A32959)]. Lysates were clarified by centrifugation and 100 μL/well added into the PathScan phospho-Met (panTyr) Sandwich ELISA (Cell Signaling Technology #7333). Assay was performed according to manufacturer's instructions. Positive control wells (100% activity) contained HGF-stimulated, DMSO-treated cell lysates. Negative control wells (0% activity) contained HGF-stimulated, reference inhibitor-treated cell lysates. IC50 values were calculated by nonlinear regression analysis using a 4-parameter logistic curve fit in ActivityBase XE (IDBS).

[2] = target: KDR (phospho-KDR, VEGF165-stimulated HUVEC cells) (Homo sapiens (Human), UniProt P35968); test: KDR autophosphorylation ELISA in HUVEC cells (Example G); conditions: cellular activity
KDR (phospho-KDR, VEGF165-stimulated HUVEC cells), sequence (P35968 20-1356): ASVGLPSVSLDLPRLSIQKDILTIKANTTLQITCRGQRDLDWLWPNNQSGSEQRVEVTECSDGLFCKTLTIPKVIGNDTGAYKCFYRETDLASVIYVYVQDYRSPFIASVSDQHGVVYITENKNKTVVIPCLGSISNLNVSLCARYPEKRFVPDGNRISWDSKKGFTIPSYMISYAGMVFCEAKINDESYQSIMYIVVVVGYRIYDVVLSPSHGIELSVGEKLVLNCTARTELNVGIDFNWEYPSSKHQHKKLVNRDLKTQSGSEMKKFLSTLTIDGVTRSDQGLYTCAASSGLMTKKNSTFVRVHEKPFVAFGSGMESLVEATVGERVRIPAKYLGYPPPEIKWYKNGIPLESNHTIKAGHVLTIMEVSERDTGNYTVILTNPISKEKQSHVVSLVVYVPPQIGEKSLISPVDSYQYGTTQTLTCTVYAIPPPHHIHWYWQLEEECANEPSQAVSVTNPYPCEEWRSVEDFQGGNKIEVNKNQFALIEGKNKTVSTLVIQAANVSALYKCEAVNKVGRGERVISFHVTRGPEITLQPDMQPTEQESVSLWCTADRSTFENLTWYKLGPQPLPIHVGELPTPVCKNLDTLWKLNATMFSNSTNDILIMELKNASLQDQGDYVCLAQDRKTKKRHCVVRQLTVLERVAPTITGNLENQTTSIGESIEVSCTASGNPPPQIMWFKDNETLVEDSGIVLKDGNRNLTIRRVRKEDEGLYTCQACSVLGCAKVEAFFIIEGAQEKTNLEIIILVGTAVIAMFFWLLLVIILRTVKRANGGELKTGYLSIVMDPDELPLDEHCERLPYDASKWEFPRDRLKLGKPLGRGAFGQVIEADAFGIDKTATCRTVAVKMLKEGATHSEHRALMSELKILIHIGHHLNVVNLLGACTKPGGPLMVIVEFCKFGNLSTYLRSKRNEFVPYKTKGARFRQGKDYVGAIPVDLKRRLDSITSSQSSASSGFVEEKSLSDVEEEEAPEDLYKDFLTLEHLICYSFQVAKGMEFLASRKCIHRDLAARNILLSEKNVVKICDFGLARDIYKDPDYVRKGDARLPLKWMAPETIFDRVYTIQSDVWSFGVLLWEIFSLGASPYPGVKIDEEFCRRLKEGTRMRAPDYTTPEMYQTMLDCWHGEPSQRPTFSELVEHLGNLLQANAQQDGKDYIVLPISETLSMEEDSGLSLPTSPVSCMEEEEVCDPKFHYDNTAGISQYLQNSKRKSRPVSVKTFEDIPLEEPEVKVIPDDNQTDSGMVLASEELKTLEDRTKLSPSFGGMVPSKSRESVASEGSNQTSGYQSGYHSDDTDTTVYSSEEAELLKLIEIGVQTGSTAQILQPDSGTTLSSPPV
Description: Human umbilical vein endothelial cells or HUVEC (Lonza #C2519A) were seeded at 2×10^4 cells/well onto 96-well plates (Corning #3904), in EGM-2 growth medium (Lonza #CC-3162) containing 1% Penicillin Streptomycin (Thermo Fisher #15140-122). HUVEC cells were incubated at 37° C., 5% CO2 for 24 h and then starved for 24 h in serum-free EBM-2 basal medium (Lonza #CC-3156) containing 1% Penicillin Streptomycin. Test compounds were serially diluted to produce an 8-point dose curve in fresh serum-free medium to a final concentration of 0.3% DMSO (vehicle) and added to the cells and incubated for 1 h. Cells were then stimulated with 100 ng/mL recombinant human VEGF165 (R&D Systems #293-VE-500) for 5 min, washed with cold PBS, and immediately lysed with […] of cold 1× lysis buffer [20 mM Tris, 137 mM sodium chloride, 2 mM EDTA, 10% glycerol, 1% NP-40 alternative, 1 mM activated sodium orthovanadate, 1 mM PefaBloc SC (Sigma-Aldrich #11429868001), protease/phosphatase inhibitor tablet (Thermo Fisher #A32959)]. Lysates were collected and 100 μL/well added into the human phospho-KDR DuoSet IC ELISA (R&D Systems #DYC1766-2). Assay was performed according to manufacturer's instructions and sample phospho-KDR concentrations were extrapolated using human phospho-KDR control (R&D Systems #841421) as a standard. Positive control wells (100% activity) contained VEGF165-stimulated, DMSO-treated cell lysates. Negative control wells (0% activity) contained non-stimulated cell lysates. IC50 values were calculated by nonlinear regression analysis using a 4-parameter logistic curve fit in ActivityBase XE (IDBS).

[3] = target: Mer (phospho-Mer, MERTK-transfected 293A cells) (Homo sapiens (Human), UniProt Q12866); test: Mer autophosphorylation ELISA in transient transfected 293A cells (Example H); conditions: cellular activity
Mer (phospho-Mer, MERTK-transfected 293A cells), sequence (Q12866 21-999): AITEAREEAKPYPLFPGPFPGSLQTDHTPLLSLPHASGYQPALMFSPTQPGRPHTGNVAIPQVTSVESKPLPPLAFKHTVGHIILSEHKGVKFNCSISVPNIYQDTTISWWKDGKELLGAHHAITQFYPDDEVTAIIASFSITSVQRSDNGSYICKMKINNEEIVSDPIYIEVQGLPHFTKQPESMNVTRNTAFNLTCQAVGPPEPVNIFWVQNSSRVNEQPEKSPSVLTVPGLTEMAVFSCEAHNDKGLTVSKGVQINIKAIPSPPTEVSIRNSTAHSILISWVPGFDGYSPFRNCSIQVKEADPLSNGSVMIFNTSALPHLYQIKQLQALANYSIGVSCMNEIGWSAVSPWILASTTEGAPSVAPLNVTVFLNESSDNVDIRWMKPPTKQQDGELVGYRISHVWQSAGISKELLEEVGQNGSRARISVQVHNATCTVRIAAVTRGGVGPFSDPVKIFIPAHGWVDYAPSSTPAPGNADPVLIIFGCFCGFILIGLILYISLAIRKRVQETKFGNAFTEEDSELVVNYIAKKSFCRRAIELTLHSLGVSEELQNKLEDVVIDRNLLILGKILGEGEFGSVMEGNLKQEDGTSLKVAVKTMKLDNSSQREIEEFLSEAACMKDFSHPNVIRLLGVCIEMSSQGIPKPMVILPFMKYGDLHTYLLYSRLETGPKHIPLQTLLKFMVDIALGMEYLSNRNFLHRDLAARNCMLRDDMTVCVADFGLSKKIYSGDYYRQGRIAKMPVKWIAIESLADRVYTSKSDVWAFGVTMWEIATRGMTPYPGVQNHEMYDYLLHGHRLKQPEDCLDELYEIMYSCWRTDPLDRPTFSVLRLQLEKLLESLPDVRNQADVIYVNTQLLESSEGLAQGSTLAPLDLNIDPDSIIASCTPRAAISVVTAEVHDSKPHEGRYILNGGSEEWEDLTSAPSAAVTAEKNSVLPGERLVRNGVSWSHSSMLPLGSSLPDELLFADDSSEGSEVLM
Description: 293A cells (Thermo Fisher #R70507) were seeded at 1.5×10^6 cells/well onto 100 mm dish (Greiner #664169), in DMEM (Thermo Fisher #11995-040) containing 10% FBS (Thermo Fisher #26140-079), 1% MEM NEAA (Thermo Fisher #11140-050), 1% GlutaMax (Thermo Fisher #35050-061), and 1% Penicillin Streptomycin (Thermo Fisher #15140-122). 293A cells were incubated at 37° C., 5% CO2 for 24 h and then transfected with […] MERTK DNA (Genecopoeia #EX-Z8208-M02) using TransIT LT1 transfection reagent (Mirus-Bio #MIR2305). After 24 h incubation, the transfected 293A cells were seeded at 1×10^5 cells/well onto 96-well plates (Corning #3904) in DMEM growth medium overnight. Test compounds were serially diluted to produce an 8-point dose curve in fresh serum-free medium to a final concentration of 0.3% DMSO (vehicle) and added to the cells and incubated for 1 h. Cells were then immediately lysed with 150 μL of cold 1× lysis buffer [20 mM Tris, 137 mM sodium chloride, 2 mM EDTA, 10% glycerol, 1% NP-40 alternative, 1 mM activated sodium orthovanadate, 1 mM PefaBloc SC (Sigma-Aldrich #11429868001), protease/phosphatase inhibitor tablet (Thermo Fisher #A32959)]. Lysates were clarified by centrifugation and 50 µL/well added in to the human phospho-Mer DuoSet IC ELISA (R&D Systems #DYC2579-2). Assay was performed according to manufacturer's instructions and sample phospho-Mer concentrations were extrapolated using human phospho-Mer control (R&D Systems #841793) as a standard. Positive control wells (100% activity) contained DMSO-treated cell lysates. Negative control wells (0% activity) contained reference inhibitor-treated cell lysates. IC50 values were calculated by nonlinear regression analysis using a 4-parameter logistic curve fit in ActivityBase XE (JDBS).

[4] = Met autophosphorylation ELISA in PC-3 cells
[5] = KDR autophosphorylation ELISA in HUVEC cells
[6] = Mer autophosphorylation ELISA in transient transfected 293A cells

Met (phospho-Met, HGF-stimulated PC-3 prostate cancer cells), sequence (P08581 25-1390): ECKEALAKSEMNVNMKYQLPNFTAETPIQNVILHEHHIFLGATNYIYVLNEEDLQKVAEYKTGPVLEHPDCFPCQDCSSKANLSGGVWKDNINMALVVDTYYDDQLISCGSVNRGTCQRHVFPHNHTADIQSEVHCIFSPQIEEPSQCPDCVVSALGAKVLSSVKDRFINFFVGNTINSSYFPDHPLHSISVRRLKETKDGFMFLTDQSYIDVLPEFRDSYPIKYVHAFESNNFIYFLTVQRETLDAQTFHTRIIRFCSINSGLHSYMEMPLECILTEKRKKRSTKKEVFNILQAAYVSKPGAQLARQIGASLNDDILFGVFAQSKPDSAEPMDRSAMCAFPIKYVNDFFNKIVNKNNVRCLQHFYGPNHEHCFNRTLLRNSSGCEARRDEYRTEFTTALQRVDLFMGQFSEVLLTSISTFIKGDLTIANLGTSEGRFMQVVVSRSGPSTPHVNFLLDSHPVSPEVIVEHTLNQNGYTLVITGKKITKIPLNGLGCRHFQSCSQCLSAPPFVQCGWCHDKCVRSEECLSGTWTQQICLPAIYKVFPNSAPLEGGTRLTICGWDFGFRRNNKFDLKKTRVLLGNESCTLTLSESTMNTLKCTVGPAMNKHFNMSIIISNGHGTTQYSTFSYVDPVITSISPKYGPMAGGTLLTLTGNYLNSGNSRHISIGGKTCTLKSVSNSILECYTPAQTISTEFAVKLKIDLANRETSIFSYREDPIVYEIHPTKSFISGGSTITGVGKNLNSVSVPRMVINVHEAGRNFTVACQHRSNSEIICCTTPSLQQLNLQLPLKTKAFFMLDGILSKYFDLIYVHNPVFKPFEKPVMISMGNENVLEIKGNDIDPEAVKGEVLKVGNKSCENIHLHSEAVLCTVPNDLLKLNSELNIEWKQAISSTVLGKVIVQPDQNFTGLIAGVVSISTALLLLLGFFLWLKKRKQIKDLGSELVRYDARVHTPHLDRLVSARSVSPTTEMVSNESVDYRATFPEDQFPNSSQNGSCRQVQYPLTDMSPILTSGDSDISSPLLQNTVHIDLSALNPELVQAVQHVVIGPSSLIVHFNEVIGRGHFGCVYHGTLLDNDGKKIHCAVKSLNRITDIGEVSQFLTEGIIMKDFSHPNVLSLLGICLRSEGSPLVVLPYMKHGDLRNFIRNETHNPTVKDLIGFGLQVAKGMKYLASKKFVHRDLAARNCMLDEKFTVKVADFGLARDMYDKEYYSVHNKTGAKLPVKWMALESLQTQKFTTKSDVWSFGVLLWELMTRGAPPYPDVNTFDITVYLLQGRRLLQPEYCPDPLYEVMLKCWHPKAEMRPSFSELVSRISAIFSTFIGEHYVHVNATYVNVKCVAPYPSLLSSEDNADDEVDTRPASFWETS

Row | Structure (SMILES) | pIC50 ([1]; PC-3 cells) | pIC50 ([2]; HUVEC cells) | pIC50 ([3]; transfected 293A cells) | pIC50 [1, 4] | pIC50 [2, 5] | pIC50 [3, 6]
1 | COc1cc2nccc(Oc3ccc(NC(=O)c4c(C)n(C)c(C)c(-c5ccc(F)c(F)c5)c4=O)cc3F)c2nc1OC [Compound 822, 5-(3,4-difluorophenyl)-N-[4-[(6,7-dimethoxy-1,5-naphthyridin-4-yl)oxy]-3-fluorophenyl]-1,2,6-trimethyl-4-oxopyridine-3-carboxamide] | > 7.00 | < 6.52 | > 7.00 |  |  | 
2 | COc1cc(-c2c(C)nc(C)c(C(=O)Nc3ccc(Oc4ccnc5cc(OC)c(OC)nc45)c(F)c3)c2O)ccc1F [Compound 709, N-[4-[(6,7-dimethoxy-1,5-naphthyridin-4-yl)oxy]-3-fluorophenyl]-5-(4-fluoro-3-methoxyphenyl)-4-hydroxy-2,6-dimethylpyridine-3-carboxamide] |  |  |  | > 7.00 | > 7.00 | > 7.00
3 | COc1cnc2c(Oc3ccc(NC(=O)c4c(C)n(C)c(C)c(-c5ccc(F)cc5F)c4=O)cc3F)ccnc2c1 [Compound 824, 5-(2,4-difluorophenyl)-N-[3-fluoro-4-[(7-methoxy-1,5-naphthyridin-4-yl)oxy]phenyl]-1,2,6-trimethyl-4-oxopyridine-3-carboxamide] | > 7.00 | < 6.52 | > 7.00 |  |  | 
4 | COc1cc2c(Oc3ccc(NC(=O)c4nc(C)c(C)n(-c5ccc(F)cc5)c4=O)cc3F)ccnc2cn1 [Compound 714, N-[3-fluoro-4-[(6-methoxy-1,7-naphthyridin-4-yl)oxy]phenyl]-4-(4-fluorophenyl)-5,6-dimethyl-3-oxopyrazine-2-carboxamide] |  |  |  | > 7.00 |  | > 7.00
5 | CCOc1ccn(-c2ccc(F)cc2)c(=O)c1C(=O)Nc1ccc(Oc2ccnc3cc(OC)c(OC)nc23)c(F)c1 [Compound 715, N-[4-[(6,7-dimethoxy-1,5-naphthyridin-4-yl)oxy]-3-fluorophenyl]-4-ethoxy-1-(4-fluorophenyl)-2-oxopyridine-3-carboxamide] |  |  |  | > 7.00 | > 7.00 | > 7.00
6 | COc1cc2nccc(Oc3ccc(NC(=O)c4c(C)nc(C)c(-c5ccc(F)c(F)c5)c4O)cc3F)c2nc1OC [Compound 708, 5-(3,4-difluorophenyl)-N-[4-[(6,7-dimethoxy-1,5-naphthyridin-4-yl)oxy]-3-fluorophenyl]-4-hydroxy-2,6-dimethylpyridine-3-carboxamide] |  |  |  | > 7.00 | > 7.00 | > 7.00
7 | COc1cc2nccc(Oc3ccc(NC(=O)c4c(C)n(CC(F)(F)F)cc(-c5ccc(F)cc5C)c4=O)cc3F)c2nc1OC [Compound 802, N-[4-[(6,7-dimethoxy-1,5-naphthyridin-4-yl)oxy]-3-fluorophenyl]-5-(4-fluoro-2-methylphenyl)-2-methyl-4-oxo-1 (2,2,2-trifluoroethyl)pyridine-3-carboxamide] | > 7.00 |  | > 7.00 |  |  | 
8 | COc1cnc2c(Oc3ccc(NC(=O)c4c(C)n(C)c(C)c(-c5ccc(F)c(C)c5)c4=O)cc3F)ccnc2c1 [Compound 819, N-[3-fluoro-4-[(7-methoxy-1,5-naphthyridin-4-yl)oxy]phenyl]-5-(4-fluoro-3-methylphenyl)-1,2,6-trimethyl-4-oxopyridine-3-carboxamide] | > 7.00 | < 6.52 | > 7.00 |  |  | 
9 | CCOc1ccn(-c2ccc(F)cc2)c(=O)c1C(=O)Nc1ccc(Oc2ccnc3cc(OC)cnc23)c(F)c1 [Compound 716, 4-ethoxy-N-[3-fluoro-4-[(7-methoxy-1,5-naphthyridin-4-yl)oxy]phenyl]-1-(4-fluorophenyl)-2-oxopyridine-3-carboxamide] |  |  |  | > 7.00 | < 6.52 | > 7.00
10 | COc1cc2nccc(Oc3ccc(NC(=O)c4c(C)n(CC(F)F)cc(-c5ccc(F)cc5)c4=O)cc3)c2nc1OC [Compound 788, 1-(2,2-difluoroethyl)-N-[4-[(6,7-dimethoxy-1,5-naphthyridin-4-yl)oxy]phenyl]-5-(4-fluorophenyl)-2-methyl-4-oxopyridine-3-carboxamide] |  |  |  | > 7.00 | 6.52 to 7.00 | > 7.00
11 | COc1cnc2c(Oc3ccc(NC(=O)c4c(C)n(CC(F)(F)F)cc(-c5ccc(F)cc5)c4=O)cc3F)ccnc2c1 [Compound 790, N-[3-fluoro-4-[(7-methoxy-1,5-naphthyridin-4-yl)oxy]phenyl]-5-(4-fluorophenyl)-2-methyl-4-oxo-1-(2,2,2-trifluoroethyl)pyridine-3-carboxamide] |  |  |  | > 7.00 | < 6.52 | > 7.00
12 | COc1cc2nccc(Oc3ccc(NC(=O)c4c(C)nc(C)c(-c5ccc(C(C)C)cc5)c4O)cc3F)c2nc1OC [Compound 711, N-[4-[(6,7-dimethoxy-1,5-naphthyridin-4-yl)oxy]-3-fluorophenyl]-4-hydroxy-2,6-dimethyl-5-(4-propan-2-ylphenyl)pyridine-3-carboxamide] |  |  |  | > 7.00 | > 7.00 | > 7.00
13 | COc1cc2nccc(Oc3ccc(NC(=O)c4c(C)n(CC(F)(F)F)cc(-c5ccc(F)cc5)c4=O)cc3F)c2nc1OC [Compound 727, N-[4-[(6,7-dimethoxy-1,5-naphthyridin-4-yl)oxy]-3-fluorophenyl]-5-(4-fluorophenyl)-2-methyl-4-oxo-1-(2,2,2-trifluoroethyl)pyridine-3-carboxamide] |  |  |  | > 7.00 | 6.52 to 7.00 | > 7.00
14 | CCOc1ccn(-c2ccc(F)cc2)c(=O)c1C(=O)Nc1ccc(Oc2ccnc3cc(OC)c(OC)nc23)cc1 [Compound 718, N-[4-[(6,7-dimethoxy-1,5-naphthyridin-4-yl)oxy]phenyl]-4-ethoxy-1-(4-fluorophenyl)-2-oxopyridine-3-carboxamide] |  |  |  | > 7.00 | 6.52 to 7.00 | > 7.00
15 | COc1ccc(-c2c(C)nc(C)c(C(=O)Nc3ccc(Oc4ccnc5cc(OC)c(OC)nc45)c(F)c3)c2O)c(OC)c1 [Compound 713, N-[4-[(6,7-dimethoxy-1,5-naphthyridin-4-yl)oxy]-3-fluorophenyl]-5-(2,4-dimethoxyphenyl)-4-hydroxy-2,6-dimethylpyridine-3-carboxamide] |  |  |  | > 7.00 |  | > 7.00
